Test results reported in US20250346606A1, “CAMPTOTHECIN COMPOUND, PREPARATION METHOD THEREFOR, AND APPLICATION THEREOF” (SICHUAN KELUN-BIOTECH BIOPHARMACEUTICAL CO., LTD., priority 2021, published 2025).
Where two headings read alike, the source gives them in different places.

How the values were obtained:
Assay type in all cases: cell-based, Human
SKOV-3 cells = assay: Inhibitory effect of compounds on SKOV-3 cell proliferation; settings: read-out: IC50, inhibitory activity on SKOV-3 cell proliferation
Method: (1) Cell plating: First, tumor cells SKOV-3 were cultured in corresponding medium, then digested with trypsin, centrifuged, resuspended, and counted, and the cells were adjusted to an appropriate concentration for plating.
(§1) Co-incubation of the compound of the present disclosure and tumor cells: after the cells adhered to the wall, the medium was removed, and the diluted bioactive molecule (the compound of the present disclosure) was added to the wells of the above plate, and incubated for 72 h.
(§2) In vitro cell viability detection: After the incubation, 50 μL of Cell Counting-Lite™ 2.0 reagent (Vazyme/Novazyme) was added to each well, shaken and mixed well in the dark, reacted for 10 minutes, and then the detection was carried out with a microplate reader (manufacturer: BMG, Model: PHERAStar-FS) for reading. The background RLU was obtained by using cell-free medium (with Cell Counting-Lite™), and the vehicle RLU was obtained by using cell-containing medium (with Cell Counting-Lite™). Cell inhibition rate=1−(sample RLU−background RLU)/(solvent RLU−background RLU)×100%. According to the four-parameter model fitting curve, the half maximal inhibitory concentration (IC50) of the compound was calculated, and the detection results were shown in Table 8.

HCC70 cells = assay: Inhibitory effect of compounds on HCC70 cell proliferation; settings: read-out: IC50, inhibitory activity on HCC70 cell proliferation
Method: (1) Cell plating: First, tumor cells HCC70 were cultured in corresponding medium, then digested with trypsin, centrifuged, resuspended, and counted, and the cells were adjusted to an appropriate concentration for plating.
as §1
as §2, with “16.” for “8.”

NCI-N87 cells = assay: Inhibitory effect of compounds on NCI-N87 cell proliferation
In short: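 Adherent NCI-N87 cells were exposed to compound dilutions for 72 h. Viability measured by Cell Counting-Lite 2.0 luminescence, with inhibition calculated against vehicle and cell-free background RLU. IC50 from four-parameter fit.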

HT29 cells = assay: Inhibitory effect of compounds on HT29 cell proliferation; settings: read-out: IC50, inhibitory activity on HT29 cell proliferation
In short: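 Adherent HT29 cells incubated with diluted compounds for 72 h; viability read by luminescence (Cell Counting-Lite 2.0, 10 min). Inhibition calculated against cell-free background and vehicle-treated cells; IC50 from four-parameter curve fit.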

NCI-H358 cells = assay: Inhibitory effect of compounds on NCI-H358 cell proliferation
In short: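 Adherent NCI-H358 cells were exposed to compound for 72 h, then viability was read by luminescence (Cell Counting-Lite 2.0). Inhibition calculated from RLU relative to cell-free background and vehicle wells; IC50 from a four-parameter fit.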

A549 cells = assay: Inhibitory effect of compounds on A549 cell proliferation; settings: read-out: IC50, inhibitory activity on A549 cell proliferation
Method: (1) Cell plating: First, tumor cells A549 were cultured in the corresponding medium, then digested with trypsin, centrifuged and resuspended, and counted, and the cells were adjusted to an appropriate concentration for plating.
as §1
as §2, with “activity” for “viability”, “4.” for “8.”

HCC1806 cells = assay: Inhibitory effect of compounds on HCC1806 cell proliferation
Method: (1) Cell plating: First, tumor cells HCC1806 were cultured in corresponding medium, then digested with trypsin, centrifuged, resuspended, and counted, and the cells were adjusted to an appropriate concentration for plating.
as §1
as §2, with “6.” for “8.”

MDA-MB-231 cells = assay: Inhibitory effect of compounds on MDA-MB-231 cell proliferation; settings: read-out: IC50, inhibitory activity on MDA-MB-231 cell proliferation
Method: (1) Cell plating: First, tumor cells MDA-MB-231 were cultured in corresponding medium, then digested with trypsin, centrifuged, resuspended, and counted, and the cells were adjusted to an appropriate concentration for plating.
as §1
as §2, with “18.” for “8.”

Hela cells = assay: Inhibitory effect of compounds on Hela cell proliferation; settings: read-out: IC50, inhibitory activity on Hela cell proliferation
Method: (1) Cell plating: First, tumor cells Hela were cultured in corresponding medium, then digested with trypsin, centrifuged, resuspended, and counted, and the cells were adjusted to an appropriate concentration for plating.
as §1
as §2, with “14.” for “8.”

Jeko-1 cells = assay: Inhibitory effect of compounds on Jeko-1 cell proliferation; settings: Jeko-1 human mantle cell lymphoma cells, 72 h incubation, Cell Counting-Lite 2.0; read-out: IC50, inhibitory activity on Jeko-1 cell proliferation
Method: (1) Cell plating: First, tumor cells Jeko-1 were cultured in corresponding medium, then digested with trypsin, centrifuged, resuspended, and counted, and the cells were adjusted to an appropriate concentration for plating.
as §1
as §2, with “20.” for “8.”

[1] = Homo sapiens, NCI-H358, 72 h, read-out: IC50, inhibitory activity on NCI-H358 cell proliferation, NCI-H358 human non-small cell lung cancer cells, 72 h incubation, Cell Counting-Lite 2.0
[2] = Homo sapiens, HCC1806, 72 h, read-out: IC50, inhibitory activity on HCC1806 cell proliferation, HCC1806 human breast squamous carcinoma cells, 72 h incubation, Cell Counting-Lite 2.0
[3] = NCI-N87 human gastric cancer cells, 72 h incubation, Cell Counting-Lite 2.0, read-out: IC50, inhibitory activity on NCI-N87 cell proliferation
[4] = HT-29, HT29 human colon cancer cells, 72 h incubation, Cell Counting-Lite 2.0

Compound	IC50 (SKOV-3 cells; Homo sapiens, SK-OV-3, 72 h)	IC50 (HCC70 cells; Homo sapiens, HCC70, 72 h)	IC50 (HT29 cells; Homo sapiens, HT-29, 72 h)	IC50 (NCI-H358 cells; [1])	IC50 (A549 cells; Homo sapiens, A549, 72 h)	IC50 (HCC1806 cells; [2])	IC50 (NCI-N87 cells; [3])	IC50 (HT29 cells; [4])	also measured
CC[C@@]1(O)C(=O)OCc2c1cc1n(c2=O)Cc2c-1nc1cc(Cl)c(C)c3c1c2[C@@H](NC(=O)[C@H](O)C1CC1)CC3 [Example 5 (2-12-C), (2R)—N-((1S,9S)-5-chloro-9-ethyl-9-hydroxy-4-methyl-10,13-dioxo-2,3,9,10,13,15-hexahydro-1H,12H-benzo[de]pyrano[3′,4′:6,7]indolizino[1,2-b]quinolin-1-yl)-2-cyclopropyl-2-hydroxyacetamide]	6.52 nM	211 nM	1.49 nM	23.1 nM	6.64 nM	2.08 nM	–	–	IC50 (NCI-N87 cells; Homo sapiens, NCI-N87, 72 h, read-out: IC50, inhibitory activity on NCI-N87 cell proliferation, NCI-N87 human gastric cancer cells, 72 h incubation, Cell Counting-Lite 2.0): 4.51 nM
CC[C@@]1(O)C(=O)OCc2c1cc1n(c2=O)Cc2c-1nc1cc(Cl)c(C)c3c1c2[C@@H](NC(=O)CO)CC3 [Example 3 (2-1-A), N-((1S,9S)-5-chloro-9-ethyl-9-hydroxy-4-methyl-10,13-dioxo-2,3,9,10,13,15-hexahydro-1H,12H-benzo[de]pyrano[3′,4′:6,7]indolizino[1,2-b]quinolin-1-yl)-2-hydroxyacetamide]	7.12 nM	–	5.03 nM	68.6 nM	–	1.43 nM	–	–	IC50 (MDA-MB-231 cells; Homo sapiens, MDA-MB-231, 72 h): 300 nM; IC50 (Hela cells; Homo sapiens, HeLa, 72 h): 17 nM
CC[C@@]1(O)C(=O)OCc2c1cc1n(c2=O)Cc2c-1nc1cc(F)c(C)c3c1c2[C@@](C)(N)CC3 (single isomer, unassigned) [Example 12 (5-13-A)]	–	–	–	–	–	–	2.33 nM	0.88 nM	IC50 (SKOV-3 cells; SK-OV-3, SKOV-3 human ovarian cancer cells, 72 h incubation, Cell Counting-Lite 2.0): 2.09 nM; IC50 (MDA-MB-231 cells; MDA-MB-231 human breast cancer cells, 72 h incubation, Cell Counting-Lite 2.0): 333 nM; IC50 (HCC70 cells; HCC70 human breast cancer cells, 72 h incubation, Cell Counting-Lite 2.0): 36.6 nM; IC50 (NCI-H358 cells; NCI-H358 human non-small cell lung cancer cells, 72 h incubation, Cell Counting-Lite 2.0, read-out: IC50, inhibitory activity on NCI-H358 cell proliferation): 7.01 nM; IC50 (HCC1806 cells; HCC1806 human breast squamous carcinoma cells, 72 h incubation, Cell Counting-Lite 2.0, read-out: IC50, inhibitory activity on HCC1806 cell proliferation): 0.96 nM
CC[C@@]1(O)C(=O)OCc2c1cc1n(c2=O)Cc2c-1nc1cc(F)c(C)cc1c2CNC(=O)C1(O)CC1 [Example 11 (4-10), (S)—N-((4-ethyl-8-fluoro-4-hydroxy-9-methyl-3,14-dioxo-3,4,12,14-tetrahydro-1H-pyrano[3′,4′:6,7]indolizino[1,2-b]quinolin-11-yl)methyl)-1-hydroxycyclopropane-carboxamide]	–	–	–	–	–	–	2.29 nM	0.52 nM	IC50 (Jeko-1 cells): 0.45 nM; IC50 (Hela cells; Hela human cervical cancer cells, 72 h incubation, Cell Counting-Lite 2.0): 3.04 nM; IC50 (A549 cells; A549 human lung cancer cells, 72 h incubation, Cell Counting-Lite 2.0): 68.5 nM
CC[C@@]1(O)C(=O)OCc2c1cc1n(c2=O)Cc2c-1nc1cc(Cl)c(C)c3c1c2[C@H](NC[C@H](C)O)CC3 [Example 4 (2-7-B), (2S)—N-((1R,9S)-5-chloro-9-ethyl-9-hydroxy-4-methyl-10,13-dioxo-2,3,9,10,13,15-hexahydro-1H,12H-benzo[de]pyrano[3′,4′:6,7]indolizino[1,2-b]quinolin-1-yl)-2-hydroxypropylamine]	9.47 nM	192 nM	5.44 nM	51.1 nM	16.4 nM	–	–	–	–
